Experimental findings from patent publication US12018059B2, “Human amylin analog polypeptides and methods of use” (Intarcia Therapeutics, Inc., priority 2018, dated 2024) are described below.

Data set [1] addresses human amylin 3 receptor (hAMY3R) (Homo sapiens, UniProt O60896+P30988). Kind of data set: cAMP accumulation functional assay in HEK293-CNG cells expressing hAMY3R. The format is cell-based. As for the experimental part:
(§1) In the presence of the non-specific cAMP/cGMP phosphodiesterase inhibitor 3-isobutyl-1-methylxanthine (IBMX), accumulating cAMP can be measured in vitro using common detection methods. Thus, it is possible to estimate an in vitro potency (pEC50) for peptides activating each of these receptors using fit dose-response curves for cAMP accumulation.
(§2) Cells were carried in growth media for no more than 10 passages prior to testing.
(§3) Peptides were serially diluted in the same buffer as above for each given assay condition. Two assay control solutions consisting of 50 mcM forskolin (cAMP system maximum) or assay buffer only (cAMP system minimum) were also prepared in the appropriate stimulation buffers. Five microliters of each peptide-concentration, or assay control was added to triplicate wells and incubated for thirty minutes at room temperature. During this incubation step a 4× europium labelled cAMP tracer solution and a 4× Ulight®-anti-cAMP solution (consisting of an anti-cAMP monoclonal antibody labelled with Ulight™ dye) was prepared according to the manufacturer's protocol (PerkinElmer LANCE Ultra cAMP kit). Following this incubation, 5 mcL europium labelled cAMP and 5 mcL Ulight anti-cAMP antibody was added to wells. The plate was covered with an adhesive cover to prevent evaporation and incubated for 60 minutes at room temperature in the dark. Plates were read on an Envision fluorescent plate reader (PerkinElmer).
(§4) Test values were first normalized to the forskolin induced cAMP system maximum and system minimum averaged values in Excel using the formula: (test value−system minavg)/(system maxavg−system minavg)*100. Normalized test values represent a baseline corrected percentage of the system maximum cAMP response induced by forskolin. Normalized data was analyzed from triplicate tests and used to estimate the EC50 for each peptide on each receptor. Data was fit in GraphPad Prism software (v7.04) using a 4-parameter logistic curve model: Y=Bottom+(Top−Bottom)/(1+10^((Log EC50−X))). The Hill slope was constrained to 1.0. EC50 values were converted to pEC50 values using the formula: pEC50=−Log (EC50).
On the technique in general: Changes in cAMP serve as a functional read-out for many G protein-coupled receptors.

The target of data set [2] is T1, human calcitonin receptor (hCTR) (Homo sapiens, UniProt P30988).
T1 sequence (P30988 25-474): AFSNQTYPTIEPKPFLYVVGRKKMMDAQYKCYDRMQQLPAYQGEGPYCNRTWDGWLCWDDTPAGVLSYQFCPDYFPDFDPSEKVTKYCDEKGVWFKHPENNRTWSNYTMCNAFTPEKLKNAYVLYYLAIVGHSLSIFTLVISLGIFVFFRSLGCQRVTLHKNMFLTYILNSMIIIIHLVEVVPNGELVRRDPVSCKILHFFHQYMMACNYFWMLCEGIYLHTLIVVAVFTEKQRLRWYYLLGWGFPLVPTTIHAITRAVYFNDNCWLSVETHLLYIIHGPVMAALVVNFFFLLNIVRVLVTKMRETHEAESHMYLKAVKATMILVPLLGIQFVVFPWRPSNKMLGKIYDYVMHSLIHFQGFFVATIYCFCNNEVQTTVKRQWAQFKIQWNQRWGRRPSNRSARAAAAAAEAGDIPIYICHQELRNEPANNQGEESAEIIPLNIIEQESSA
Kind of data set: cAMP accumulation functional assay in HEK293-CNG cells expressing hCTR. The format is cell-based. As for the experimental part: as §1, §2, §3, §4

A short description of a further data set: in vivo. Further details: species or system Sprague-Dawley rats. The settings on record: rat, iv, 0.033 mg/kg. The essentials:
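Male Sprague-Dawley rats, non-fasted (n=3), given peptide in saline as 1-h IV or SC infusion at 0.033 mg/kg, or SC bolus at 0.3 mg/kg; jugular blood to 48 h into K2EDTA plus protease inhibitors. Plasma extracted by precipitation or WCX solid-phase extraction, quantified by UPLC-MS/MS against standards in matching rat plasma.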

[3] abbreviates: 0% HSA, read-out: pEC50 hAMY3R 0% HSA (converted).
Setting [4] is: 4% HSA, read-out: pEC50 hAMY3R 4% HSA (converted).
Setting [5] is: pEC50 hAMY3R 0.1% HSA, 0.1% HSA.
[6] abbreviates: hCTR 0% HSA, 0% HSA, read-out: pEC50 hCTR 0% HSA (converted).
Setting [7] is: hCTR 4% HSA, 4% HSA, read-out: pEC50 hCTR 4% HSA (converted).

Like-named read-outs stand apart in the source and are kept apart here. Starred links: 1 amine or outer side, 2 acyl side, 3 side chain; linkers in the order of their positions; H or OH if unused. Positions of bridges follow the written chain, without caps; N, C: chain ends. Non-standard residues stand in square brackets, D forms with d. Residues, ends and D or L forms follow the SMILES beside them. Groups on a side chain read outwards from the residue. *: point of attachment. C20 diacid = O=C(O)CCCCCCCCCCCCCCCCCCC(=O)*; C18 diacid = O=C(O)CCCCCCCCCCCCCCCCC(=O)*; γGlu = O=C(O)[C@H](CCC(=O)[*:2])N[*:1]; AEEA = NCCOCCOCC(=O)O

Chain of human amylin 3 receptor (hAMY3R) (O60896 24-148, one chain of several): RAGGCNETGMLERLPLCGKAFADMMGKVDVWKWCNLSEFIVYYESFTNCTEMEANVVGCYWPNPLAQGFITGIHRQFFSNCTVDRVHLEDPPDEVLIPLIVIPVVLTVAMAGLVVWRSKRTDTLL

In the case of `CC[C@H](C)[C@H](NC(=O)[C@@H]1CCCN1C(=O)CNC(=O)[C@H](Cc1ccccc1)NC(=O)[C@H](CC(N)=O)NC(=O)[C@H](CC(N)=O)NC(=O)[C@H](CO)NC(=O)[C@H](CO)NC(=O)[C@H](CCCCN)NC(=O)[C@H](Cc1c[nH]cn1)NC(=O)[C@H](CC(C)C)NC(=O)[C@@H](CCCCNC(=O)CC[C@H](NC(=O)CC[C@H](NC(=O)COCCOCCNC(=O)CC[C@H](NC(=O)CCCCCCCCCCCCCCCCCCC(=O)O)C(=O)O)C(=O)O)C(=O)O)NC(=O)[C@H](CC(N)=O)NC(=O)[C@H](C)NC(=O)[C@H](CC(C)C)NC(=O)[C@H](CCCNC(=N)N)NC(=O)[C@H](CCC(N)=O)NC(=O)[C@@H](NC(=O)[C@H](C)NC(=O)[C@@H]1CSSC[C@H](NC(=O)[C@@H](N)CO)C(=O)N[C@@H](CC(N)=O)C(=O)N[C@@H]([C@@H](C)O)C(=O)N[C@@H](CO)C(=O)N[C@@H]([C@@H](C)O)C(=O)N1)[C@@H](C)O)C(=O)N[C@@H](CC(C)C)C(=O)N1CCC[C@H]1C(=O)N1CCC[C@H]1C(=O)N[C@H](C(=O)N[C@@H](CCCCN)C(=O)N[C@H](C(=O)NCC(=O)N[C@@H](CO)C(=O)N[C@@H](CCC(=O)O)C(=O)N[C@H](C(=O)N[C@@H](Cc1ccc(O)cc1)C(N)=O)[C@@H](C)O)C(C)C)[C@@H](C)O` [Compound A100] (H-SCNTSTCATQRLAN[dK]([γGlu-γGlu-AEEA-γGlu-C20 diacid])LHKSSNNFGPILPPTKVGSETY-NH2; disulfide 2-7; N-terminus assumed), the EC50 was 0.00794 nM in data set [1] (setting [3]); 25.1 nM in data set [1] (setting [4]); 1.58 nM in data set [1] (setting [5]); 0.0316 nM in data set [2] (setting [6]); 7.94 nM in data set [2] (hCTR 0.1% HSA, 0.1% HSA); 79.4 nM in data set [2] (setting [7]). For the same molecule, in the data set “in vivo”, the Vd (as a rule, the apparent volume that relates the amount in the body to the concentration in plasma or blood) amounted to 0.14 L/kg. The clearance (as a rule, a measure of how efficiently the substance is removed, as volume per time) in “in vivo” came out at 4.75 mL/h/kg. For the same molecule, the half-life (as a rule, the time in which the quantity being followed falls by half) in “in vivo” was 21.4 h.
In the case of `CC[C@H](C)[C@H](NC(=O)[C@@H]1CCCN1C(=O)CNC(=O)[C@H](Cc1ccccc1)NC(=O)[C@H](CC(N)=O)NC(=O)[C@H](CC(N)=O)NC(=O)[C@H](CO)NC(=O)[C@H](CO)NC(=O)[C@H](CCCCN)NC(=O)[C@H](Cc1c[nH]cn1)NC(=O)[C@H](CC(C)C)NC(=O)[C@H](CCC(=O)O)NC(=O)[C@H](CC(N)=O)NC(=O)[C@H](C)NC(=O)[C@H](CC(C)C)NC(=O)[C@H](CCCNC(=N)N)NC(=O)[C@H](CCC(N)=O)NC(=O)[C@@H](NC(=O)[C@H](C)NC(=O)[C@@H]1CSSC[C@H](NC(=O)[C@@H](N)CCCCNC(=O)CC[C@H](NC(=O)CC[C@H](NC(=O)COCCOCCNC(=O)COCCOCCNC(=O)CC[C@H](NC(=O)CCCCCCCCCCCCCCCCCCC(=O)O)C(=O)O)C(=O)O)C(=O)O)C(=O)N[C@@H](CC(N)=O)C(=O)N[C@@H]([C@@H](C)O)C(=O)N[C@@H](CO)C(=O)N[C@@H]([C@@H](C)O)C(=O)N1)[C@@H](C)O)C(=O)N[C@@H](CC(C)C)C(=O)N1CCC[C@H]1C(=O)N1CCC[C@H]1C(=O)N[C@H](C(=O)N[C@@H](CCCCN)C(=O)N[C@H](C(=O)NCC(=O)N[C@@H](CO)C(=O)N[C@@H](CCC(=O)O)C(=O)N[C@H](C(=O)N[C@@H](Cc1ccc(O)cc1)C(N)=O)[C@@H](C)O)C(C)C)[C@@H](C)O` [Compound A112] (H-K([γGlu-γGlu-AEEA-AEEA-γGlu-C20 diacid])CNTSTCATQRLANELHKSSNNFGPILPPTKVGSETY-NH2; disulfide 2-7), the EC50 was 0.00251 nM in data set [1] (setting [3]); 10 nM in data set [1] (setting [4]); 0.501 nM in data set [1] (setting [5]); 0.0126 nM in data set [2] (setting [6]); 3.16 nM in data set [2] (hCTR 0.1% HSA, 0.1% HSA); 31.6 nM in data set [2] (setting [7]). Also, in “in vivo”, the volume of distribution (Vd) was determined as 0.0998 L/kg. Moreover, the clearance in the data set “in vivo” was 2.45 mL/h/kg. This molecule also had a half-life in “in vivo” of 32.6 h.
For `CC[C@H](C)[C@H](NC(=O)[C@@H]1CCCN1C(=O)CNC(=O)[C@H](Cc1ccccc1)NC(=O)[C@H](CC(N)=O)NC(=O)[C@H](CC(N)=O)NC(=O)[C@H](CO)NC(=O)[C@H](CO)NC(=O)[C@H](CCCCN)NC(=O)[C@H](Cc1c[nH]cn1)NC(=O)[C@H](CC(C)C)NC(=O)[C@H](CCC(=O)O)NC(=O)[C@H](CC(N)=O)NC(=O)[C@H](C)NC(=O)[C@H](CC(C)C)NC(=O)[C@H](CCCNC(=N)N)NC(=O)[C@H](CCC(N)=O)NC(=O)[C@@H](NC(=O)[C@H](C)NC(=O)[C@@H]1CSSC[C@H](NC(=O)[C@@H](N)CCCCNC(=O)COCCOCCNC(=O)COCCOCCNC(=O)CC[C@H](NC(=O)CCCCCCCCCCCCCCCCC(=O)O)C(=O)O)C(=O)N[C@@H](CC(N)=O)C(=O)N[C@@H]([C@@H](C)O)C(=O)N[C@@H](CO)C(=O)N[C@@H]([C@@H](C)O)C(=O)N1)[C@@H](C)O)C(=O)N[C@@H](CC(C)C)C(=O)N1CCC[C@H]1C(=O)N1CCC[C@H]1C(=O)N[C@H](C(=O)N[C@@H](CCCCN)C(=O)N[C@H](C(=O)NCC(=O)N[C@@H](CO)C(=O)N[C@@H](CCC(=O)O)C(=O)N[C@H](C(=O)N[C@@H](Cc1ccc(O)cc1)C(N)=O)[C@@H](C)O)C(C)C)[C@@H](C)O` [Compound A113] (H-K([AEEA-AEEA-γGlu-C18 diacid])CNTSTCATQRLANELHKSSNNFGPILPPTKVGSETY-NH2; disulfide 2-7), the EC50 in data set [1] (setting [4]) was 1 nM; in data set [1] (setting [5]) it was 0.0251 nM; in data set [2] (setting [6]), 0.00501 nM; in data set [2] (hCTR 0.1% HSA, 0.1% HSA) it was 0.2 nM; in data set [2] (setting [7]), 7.94 nM.
In the case of `CC[C@H](C)[C@H](NC(=O)[C@@H]1CCCN1C(=O)CNC(=O)[C@H](Cc1ccccc1)NC(=O)[C@H](CC(N)=O)NC(=O)[C@H](CC(N)=O)NC(=O)[C@H](CO)NC(=O)[C@H](CO)NC(=O)[C@H](CCCCN)NC(=O)[C@H](Cc1c[nH]cn1)NC(=O)[C@H](CC(C)C)NC(=O)[C@H](CCC(=O)O)NC(=O)[C@H](CC(N)=O)NC(=O)[C@H](C)NC(=O)[C@H](CC(C)C)NC(=O)[C@H](CCCNC(=N)N)NC(=O)[C@H](CCC(N)=O)NC(=O)[C@@H](NC(=O)[C@H](C)NC(=O)[C@@H]1CSSC[C@H](NC(=O)[C@@H](N)CCCCNC(=O)CC[C@H](NC(=O)CCCCCCCCCCCCCCCCCCC(=O)O)C(=O)O)C(=O)N[C@@H](CC(N)=O)C(=O)N[C@@H]([C@@H](C)O)C(=O)N[C@@H](CO)C(=O)N[C@@H]([C@@H](C)O)C(=O)N1)[C@@H](C)O)C(=O)N[C@@H](CC(C)C)C(=O)N1CCC[C@H]1C(=O)N1CCC[C@H]1C(=O)N[C@H](C(=O)N[C@@H](CCCCN)C(=O)N[C@H](C(=O)NCC(=O)N[C@@H](CO)C(=O)N[C@@H](CCC(=O)O)C(=O)N[C@H](C(=O)N[C@@H](Cc1ccc(O)cc1)C(N)=O)[C@@H](C)O)C(C)C)[C@@H](C)O` [Compound A119] (H-K([γGlu-C20 diacid])CNTSTCATQRLANELHKSSNNFGPILPPTKVGSETY-NH2; disulfide 2-7; N-terminus assumed), the EC50 in data set [1] (setting [3]) was 0.00126 nM; in data set [1] (setting [4]), 3.16 nM; in data set [1] (setting [5]) it was 0.0631 nM; in data set [2] (setting [6]), 0.00631 nM; in data set [2] (hCTR 0.1% HSA, 0.1% HSA) it was 0.316 nM; in data set [2] (setting [7]), 12.6 nM.
